Assay results published in patent US20250108036A1, “COMPOSITIONS FOR REMOVING SENESCENT CELLS AND USES THEREOF” (LIFECEUTIX CO., LTD., priority 2021, published 2025).
Blank lines part the entries; values can stand above or below the compound they belong to.

How the values were obtained:
[1] = chlorhexidine gluconate-induced peritoneal fibrosis in mice (Example 6-2); format: in vivo, C57BL6J mice; conditions: 0.1% CHG 10 ml/kg i.p. every 2 days for 20 days; LX-112 70 mg/kg i.p. daily from day 9
Procedure: After 8-week-old male C57BL6J mice (purchased from KRIBB Laboratory Animal Resource Center) were adapted to the experimental environment for 1 week, the mice were randomized into an experimental group and a control group. To induce peritoneal fibrosis, 0.1% chlorhexidine gluconate (CHG, purchased from Sigma) was dissolved in 15% ethanol phosphate buffer solution and administered intraperitoneally at a concentration of 10 ml/kg every 2 days for 20 days. From day 9, LX-112 was mixed with 0.5% CMC-Na solution (purchased from Sigma) and administered intraperitoneally at a concentration of 70 mg/kg every day. The control group (−) was administered only the solution in the same volume. On the 20th day, paraffin sections of peritoneal tissue prepared by fixation in 4% paraformaldehyde solution were stained with H/E (Hematoxylin/Eosin) and trichrome, and the thickness of the peritoneal mesothelial cell layer was measured under a light microscope.

SAOS-2 [2] = test: senescent SAOS-2 tumor size in mice (Example 2-3); format: in vivo, BALB/c nude mice; conditions: doxorubicin 10 mg/kg i.p.; after 10 days LX-112 100 mg/kg oral daily 21 days or repeated doxorubicin
Procedure: After 7-week-old male BALB/c nude mice (purchased from KRIBB Laboratory Animal Resource Center) were adapted to the experimental environment for one week, the mice were randomized into an experimental group and a control group. SAOS-2 (10^6 cells), a human osteosarcoma cancer cell line cultured in the same manner as Example 2-1, was mixed with PBS (purchased from Welgene) and then anesthetized using 2% isoflurane (purchased from Sigma). It was administered subcutaneously to mice. When the size of the tumor reached about […], doxorubicin was mixed at a concentration of 10 mg/kg in a 1:1 solution of distilled water and PBS (pH 7.2) and administered intraperitoneally to induce tumor aging. After 10 days, LX-112 mixed with 0.5% CMC-Na solution (purchased from Sigma) at a concentration of 100 mg/kg was orally administered daily for 21 days, and the size of the tumor was measured. The control group was repeatedly administered a solution mixed with doxorubicin, and then the size of the tumor was measured.

foreskin cells = test: SA-β-gal staining of doxorubicin-treated foreskin cells (Example 1-1); format: cell-based, human; conditions: proportion of SA-β-gal stained cells; doxorubicin 250 nM 24 h + 7 days
Procedure: Specifically, foreskin cells (source: Chungnam National University College of Medicine) derived from humans were cultured in a designated medium (Iscove's Modified Dulbecco's Medium, source: ATCC; 10% FBS, source: GenDEPOT; 100 U/ml Penicillin & Streptomycin, source: Invitrogen), then treated with doxorubicin (DOX) dissolved in dimethyl sulfoxide (DMSO) at a concentration of 250 nM for 24 hours, and further cultured for 7 days to induce aging. […] To measure the proportion of aged cells, cells treated with doxorubicin and the control group were inoculated into a 24 well plate and stabilized for 24 hours. Then SA-β-gal, a marker related to aging, was stained using a kit (purchased from Cell Signaling Technology), and the proportion of senescent cells having the stained SA-β-gal was measured using an optical microscope.

AST, ALT = test: serum AST and ALT in doxorubicin-aged mice (Example 8-8); format: in vivo, C57BL6J mice; conditions: mice, doxorubicin 10 mg/kg i.p., untreated = 1
Procedure: (§1) After adapting 8-week-old male C57BL6J mice (purchased from KRIBB Laboratory Animal Resource Center) to the experimental environment for 1 week, doxorubicin, an anticancer drug, was administered intraperitoneally at a concentration of 10 mg/kg, and mice that were induced to age for more than 10 days were assigned to an experimental group and a control group. LX-112 was mixed with 0.5% CMC-Na solution (purchased from Sigma) and administered orally at a concentration of 70 mg/kg daily for 21 days. The control group was administered only the solution in the same volume. After drug administration was completed, the method described in each Example below was performed.
In the same manner as in Example 7-5, the amounts of AST (aspartate aminotransferase) and ALT (alanine transaminase) released into the blood during liver damage were measured by spectrophotometry in the serum collected from mice using a kit (purchased from Sigma) according to the method described in the manual. […] Table 50 calculates the amount of each factor after aging was induced by treatment with the anticancer drug as 100% and compared it with the amount of each factor after treatment with LX-112.

IL6, CXCL1, CXCL10, IL1β [3] = test: SASP mRNA qRT-PCR in doxorubicin-aged mice (Example 8-6); format: in vivo, C57BL6J mice; conditions: mice, doxorubicin 10 mg/kg i.p.; untreated = 1
Procedure: as §1
Using cDNA synthesized in the same manner as Example 7-6, qRT-PCR was performed and analyzed for aging-related inflammation and fibrosis secretory factors (SASP) such as IL6, CXCL1, CXCL10, and IL1β. […] Table 45 calculates the mRNA amount of each factor after aging was induced by treatment with the anticancer drug as 100% and compared it with the mRNA amount of each factor after treatment with LX-112.

SA-β-gal = SA-β-gal staining of tissues of doxorubicin-aged mice (Example 8-3); format: in vivo, C57BL6J mice; conditions: stained area; mice, doxorubicin 10 mg/kg i.p.; untreated = 1
Procedure: as §1
Mice were sacrificed in the same method in described in Example 7-3, and tissue sections were prepared from the organ tissues of each region. SA-β-gal, an aging marker was stained. […] FIG. 3 is a photographic result of staining of adipose tissue.

lipofuscin = lipofuscin staining of muscle of doxorubicin-aged mice (Example 8-4); format: in vivo, C57BL6J mice; conditions: stained area; mice, doxorubicin 10 mg/kg i.p.; untreated = 1
Procedure: as §1
Mice were sacrificed in the same manner as in Example 7-4, and tissue sections were prepared from muscle tissue. Lipofuscin, an aging-related degenerative marker was stained.

[4] = fatigue/weakness tests and body weight in doxorubicin-aged mice (Example 8-7); format: in vivo, C57BL6J mice; conditions: mice
Procedure: as §1
In the same way as Example 7-7, in order to analyze fatigue and weakness that occur as a side effect due to treatment with anticancer drugs in mice, activity evaluation (open field test), endurance evaluation (wire hanging test), and muscle strength and grip strength test (grip strength test) were performed. […] In Table 47, the amount of each evaluation after aging was induced by treatment with the anticancer drug was calculated as 100% and compared it with the amount of each evaluation after treatment with LX-112.

p16, p21 = test: p16 and p21 mRNA qRT-PCR in doxorubicin-aged mice (Example 8-2); format: in vivo, C57BL6J mice; conditions: mice, doxorubicin 10 mg/kg i.p.; untreated = 1
Procedure: as §1
The mouse was sacrificed in the same manner as in Example 7-2, RNA was extracted from the organ tissue of each region, and qRT-PCR was performed and analyzed using the synthesized cDNA. […] Table 37 calculates the mRNA amounts of p16 and p21 after aging was induced by treatment with the anticancer drug as 100% and compared them with the mRNA amounts of p16 and p21 after treatment with LX-112.

IL6 = test: serum IL6 ELISA in doxorubicin-aged mice (Example 8-5); format: in vivo, C57BL6J mice; conditions: mice, doxorubicin 10 mg/kg i.p., untreated = 1
Procedure: as §1
The amount of IL6, an aging-related inflammation secretory factor (SASP), was measured in serum collected from mice in the same manner as in Example 7-5 using an enzyme-linked immunosorbent assay (ELISA Kit, purchased from R&D Systems).

SAOS-2 [5] = test: SA-β-gal staining of doxorubicin-treated SAOS-2 cells (Example 2-1); format: cell-based, human; conditions: doxorubicin-induced aging as in Example 1-1
SAOS-2 [6] = test: CellTiter-Glo cell viability of senescent SAOS-2 cancer cells (Example 2-2); format: cell-based, human
Procedure: The standard for treating various cancers, including osteosarcoma, is repeated chemotherapy. Accordingly, aging was induced in SAOS-2 in the same manner as in Example 2-1, and then (i) treated again with doxorubicin (DOX→DOX) or (ii) treated with the LX-112 (5 μM) composition (DOX→LX-112).

IL6, CXCL1, CXCL10, IL1β [7] = test: SASP mRNA qRT-PCR in doxorubicin-aged mice (Example 8-6); format: in vivo, C57BL6J mice; conditions: doxorubicin 10 mg/kg i.p., untreated = 1
[8] = Table 46, doxorubicin 10 mg/kg i.p.

SMILES: N=C(NCCCCCCNC(=N)NC(=N)Nc1ccc(Cl)cc1)NC(=N)Nc1ccc(Cl)cc1.O=C(O)[C@H](O)[C@@H](O)[C@H](O)[C@H](O)CO.O=C(O)[C@H](O)[C@@H](O)[C@H](O)[C@H](O)CO [CHG, chlorhexidine gluconate, reference compound]
- Submesothelial Thickness (μm) [1]: 69.1 (±6.4) μm

- mRNA (Fold) CXCL10, Liver (IL6, CXCL1, CXCL10, IL1β [3]): 2.6 (±0.9)^ Fold
- mRNA (Fold) IL6, eWAT (IL6, CXCL1, CXCL10, IL1β [3]): 3.2 (±0.3) Fold
- SA-β-gal (Fold) Kidney (SA-β-gal): 4.1 (±1.5) Fold
- SA-β-gal (Fold) Liver (SA-β-gal): 3.7 (±0.9) Fold
- SA-β-gal (Fold) Lung (SA-β-gal): 1.3 (±0.4) Fold
- SA-β-gal (Fold) eWAT (SA-β-gal): 4.2 (±0.9) Fold
- Lipofuscin (Fold) Muscle (lipofuscin): 2.2 (±0.5) Fold
- p16 mRNA (Fold) Kidney (p16, p21): 1.3 (±0.3) Fold
- p16 mRNA (Fold) Liver (p16, p21): 2.6 (±0.8) Fold
- p16 mRNA (Fold) eWAT (p16, p21): 3.2 (±1.2)^ Fold
- p21 mRNA (Fold) Kidney (p16, p21): 2.6 (±2.1) Fold
- p21 mRNA (Fold) Liver (p16, p21): 3.8 (±2.3) Fold
- p21 mRNA (Fold) eWAT (p16, p21): 3.9 (±3) Fold
- IL6 (Fold) (IL6): 11.7 (±0.5) Fold
- mRNA (Fold) CXCL1, Liver (IL6, CXCL1, CXCL10, IL1β [7]): 3 (±0.9) Fold
- mRNA (Fold) CXCL1, eWAT (IL6, CXCL1, CXCL10, IL1β [7]): 1.3 (±0.4)^ Fold
- mRNA (Fold) CXCL10, eWAT (IL6, CXCL1, CXCL10, IL1β [7]): 3 (±1.2) Fold
- mRNA (Fold) IL1β, Liver (IL6, CXCL1, CXCL10, IL1β [7]): 1.6 (±0.3) Fold
- mRNA (Fold) IL1β, eWAT (IL6, CXCL1, CXCL10, IL1β [7]): 1.6 (±0.2) Fold
- mRNA (Fold) IL6, Liver (IL6, CXCL1, CXCL10, IL1β [7]): 1.8 (±0.3) Fold
SMILES: COc1cccc2c1C(=O)c1c(O)c3c(c(O)c1C2=O)C[C@@](O)(C(=O)CO)C[C@@H]3O[C@H]1C[C@H](N)[C@H](O)[C@H](C)O1 [DOX, doxorubicin, reference compound]
- Tumor Diameter (mm) (SAOS-2 [2]): 15.4 (±1.2) mm
- SA-β-gal (%) (foreskin cells): 90 (±7) %
- ALT (Fold) (AST, ALT): 1.4 (±0.5) Fold
- AST (Fold) (AST, ALT): 1.3 (±0.0) Fold
- Grip Strength Test Strength (N) [4, 8]: 0.7 (±0.1) N
- Open Field Test Time in Center (%) [4, 8]: 4.9 (±2.2) %
- Wire Hanging Test Time (Sec) [4, 8]: 32 (±11) Sec
- Mean Body Weight (g) ([4]; doxorubicin 10 mg/kg i.p. without or with LX-112 70 mg/kg oral daily 21 days): 21.3 (±2.6) g
- SA-β-gal (%) (SAOS-2 [5]): 66 (±5) %
- Survival (%) (SAOS-2 [6]; DOX → DOX (senescent cells treated again with doxorubicin), 3 d): 72 (±7) %
- Survival (%) (SAOS-2 [6]; DOX → DOX, 7 d): 55 (±5) %
